Measured values reported in EP3807270B1, “NOVEL HETEROARYL HETEROCYCLYL COMPOUNDS FOR THE TREATMENT OF AUTOIMMUNE DISEASE” (F. Hoffmann-La Roche AG, priority 2018, dated 2019).
pIC50: −log10 of the molar value.

Key:
[1] = molecular target: T1, hTLR7 (Homo sapiens, UniProt Q9NYK1); assay: HEK293-Blue-hTLR-7 cells assay (SEAP reporter, R848 stimulation); type: cell-based; set-up: host or cells: HEK293 (HEK-Blue); settings: HEK293-Blue-hTLR7 cells, R848, 20 hrs; read-out: HEK/hTLR7 IC50
T1 sequence (Q9NYK1 27-1049): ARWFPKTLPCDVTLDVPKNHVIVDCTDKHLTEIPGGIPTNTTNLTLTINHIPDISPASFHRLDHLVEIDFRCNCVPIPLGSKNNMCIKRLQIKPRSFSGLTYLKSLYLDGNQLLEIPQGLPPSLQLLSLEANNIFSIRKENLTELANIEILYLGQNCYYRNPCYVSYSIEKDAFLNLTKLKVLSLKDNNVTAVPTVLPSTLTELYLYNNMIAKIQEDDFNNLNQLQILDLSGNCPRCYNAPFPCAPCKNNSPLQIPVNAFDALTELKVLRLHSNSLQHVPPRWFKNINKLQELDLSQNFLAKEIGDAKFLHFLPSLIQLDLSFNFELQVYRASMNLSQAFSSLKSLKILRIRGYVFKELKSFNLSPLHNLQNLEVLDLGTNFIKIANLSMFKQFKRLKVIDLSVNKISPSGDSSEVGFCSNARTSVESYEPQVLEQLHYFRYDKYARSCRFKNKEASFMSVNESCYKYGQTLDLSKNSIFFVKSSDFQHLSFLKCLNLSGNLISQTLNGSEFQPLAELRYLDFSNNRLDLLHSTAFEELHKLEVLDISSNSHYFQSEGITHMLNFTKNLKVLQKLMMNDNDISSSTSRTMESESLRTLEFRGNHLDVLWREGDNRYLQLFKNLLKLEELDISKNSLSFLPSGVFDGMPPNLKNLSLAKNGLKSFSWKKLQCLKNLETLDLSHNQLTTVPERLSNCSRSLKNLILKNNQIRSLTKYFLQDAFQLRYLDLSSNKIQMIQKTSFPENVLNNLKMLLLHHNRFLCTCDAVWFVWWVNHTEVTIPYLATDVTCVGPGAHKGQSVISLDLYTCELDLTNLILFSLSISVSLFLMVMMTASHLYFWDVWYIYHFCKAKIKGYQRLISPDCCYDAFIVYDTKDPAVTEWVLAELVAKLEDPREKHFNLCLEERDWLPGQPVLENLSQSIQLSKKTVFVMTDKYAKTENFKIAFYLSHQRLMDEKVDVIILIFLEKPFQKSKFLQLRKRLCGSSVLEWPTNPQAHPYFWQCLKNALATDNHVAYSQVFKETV
Outline: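 HEK293-Blue cells stably expressing human TLR7 with an NF-κB/AP-1-driven SEAP reporter were treated with serially diluted compound (1% DMSO final) plus R848 for 20 h at 37 °C. Supernatant SEAP activity was measured with QUANTI-Blue substrate after 2 h at 37 °C, with absorbance read at 620-655 nm.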

[2] = Human microsome stability assay; type: in vitro ADME; settings: 1 µM test compound, 0.5 mg/mL liver microsomal protein, 37 °C
Outline: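 Test compound at 1 µM was incubated with human liver microsomes (0.5 mg/mL protein) and an NADPH-regenerating system in 100 mM potassium phosphate, pH 7.4, at 37 °C. Samples were taken at 0–30 min and quenched with acetonitrile. Remaining compound was quantified by LC-MS/MS, with no-NADPH controls.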

Row | Structure (SMILES) | pIC50 [1] | Clearance of Human microsome [2] [mL/min/kg]
1 | [2H]c1nc2c(C#N)ccc(N3C[C@H](CN4CCN(c5ccc6c(n5)CN[C@@H]6C)CC4)O[C@H](C)C3)c2nc1[2H] (single isomer, unassigned) [Example 97] | 8.15 | 6.15
2 | [2H]c1ccc2c(N3C[C@H](CN4CCN(c5ccc6c(n5)CN[C@@H]6C)CC4)O[C@H](C)C3)ccc(C#N)c2n1 (single isomer, unassigned) [Example 98] | 8.10 | 8.02
3 | [2H]c1nc2c(C#N)ccc(N3C[C@H](CN4CCN(c5ccc6c(n5)CN[C@H]6C)CC4)O[C@H](C)C3)c2nc1[2H] (single isomer, unassigned) [Example 96] | 8.40 | 6.23
4 | C[C@@H]1CN(c2ccc(C#N)c3nccnc23)C[C@H](CN2CCN(c3cc4c(cn3)CCN[C@H]4C)CC2)O1 (single isomer, unassigned) [Example 88] | 8.22 | 
5 | C[C@@H]1CN(c2ccc(C#N)c3nccnc23)C[C@H](CN2CCN(c3cc4c(cn3)[C@@H](C)NCC4)CC2)O1 (single isomer, unassigned) [Example 86] | 8.22 | 7.69

More lines, in order of rising pIC50 [1], values ahead:

Row | pIC50 [1] | Clearance of Human microsome [2] [mL/min/kg] | Structure (SMILES)
6 | 7.38 | 6.74 | C[C@@H]1CN(c2ccc(C#N)c3ncccc23)C[C@H](CN2CCN(c3ccc4c(c3)CNCC4)CC2)O1 [Example 9, 5-[(2R,6S)-2-methyl-6-[[4-(1,2,3,4-tetrahydroisoquinolin-7-yl)piperazin-1-yl]methyl]morpholin-4-yl]quinoline-8-carbonitrile]
7 | 7.46 | 8.61 | C[C@@H]1CN(c2ccc(C#N)c3ncccc23)C[C@H](CN2CCN(c3cnc4c(c3)CNC4)CC2)O1 [Example 10, 5-[(2S,6R)-2-[[4-(6,7-dihydro-5H-pyrrolo[3,4-b]pyridin-3-yl)piperazin-1-yl]methyl]-6-methyl-morpholin-4-yl] quinoline-8-carbonitrile]
8 | 7.96 | 6.32 | [2H]c1ccc2c(N3C[C@H](CN4CCN(c5ccc6c(n5)CN[C@H]6C)CC4)O[C@H](C)C3)ccc(C#N)c2n1 (single isomer, unassigned) [Example 99]
9 | 8.30 | 7.13 | [2H]c1nc2c(C#N)ccc(N3C[C@H](CN4CCN(c5cc6c(cn5)[C@@H](C)NCC6)CC4)O[C@H](C)C3)c2nc1[2H] (single isomer, unassigned) [Example 95]
10 | 8.40 | 8.91 | C[C@@H]1CN(c2ccc(C#N)c3nccnc23)C[C@H](CN2CCN(c3cc4c(cn3)CCN[C@@H]4C)CC2)O1 (single isomer, unassigned) [Example 87]
11 | 8.40 |  | [2H]c1nc2c(C#N)ccc(N3C[C@H](CN4CCN(c5cc6c(cn5)[C@H](C)NCC6)CC4)O[C@H](C)C3)c2nc1[2H] (single isomer, unassigned) [Example 94]
